Assay results as given in patent US9751919B2, “Antimicrobial compositions comprising a hyaluronic acid binding peptide and a β-lactam antibiotic” (priority 2012, dated 2017).
Entries after “also recorded” stand apart in the source; their conditions may differ. Marks after values point to notes of the source that are not given here.

Columns and labels:
[1] = system: P. mirabilis; assay: MIC, agent alone (broth microdilution); format: cell-based, Proteus mirabilis; conditions: footnote to Table 12; P. mirabilis 80267 and 81569
Excerpt: (§1) Organisms included Gram-positive cocci (2 strains of each): Methicillin-susceptible Staphylococcus aureus (MSSA), community-associated (CA) and healthcare-associated (HA) methicillin-resistant Staphylococcus aureus (MRSA), vancomycin-intermediate Staphylococcus aureus (VISA), vancomycin-resistant Staphylococcus aureus (VRSA), methicillin-resistant Staphylococcus epidermidis (MRSE), Streptococcus pyogenes, Streptococcus agalactiae, Streptococcus pneumoniae, Enterococcus faecalis, Enterococcus faecium and vancomycin-resistant enterococcus (VRE). Gram-negative bacilli tested (2 strains of each) included: E. coli, Pseudomonas aeruginosa, Klebsiella pneumoniae, K. oxytoca, Enterobacter cloacae, P. mirabilis and Stenotrophomonas maltophilia. MIC testing, following two subcultures from frozen stock were determined by the CLSI 2005 approved broth microdilution method.

[2] = system: MRSA, VISA, VRSA and E. coli; assay: MIC, agent alone, panel statement; format: cell-based; conditions: CA-MRSA and HA-MRSA (checkerboard strains of Table 11)
Experimental: VISA (strains 92, 95 and 96), VRSA (strains 105 and 106) and E. coli (strain 69717) isolates were also tested. One MSSA was used as a control. All MICs were assessed using CLSI guidelines. Also assessed was the activity of cefazolin, ceftriazone, meropenem, and a piperacillin/tazobactam combination antibiotic. Minimum inhibitory concentration (MIC) is the lowest concentration of an antimicrobial that will inhibit the visible growth of a microorganism after incubation.
Antimicrobial Susceptibility Testing: A custom designed panel of antimicrobials was created. The panel included: PEP35, penicillin, piperacillin/tazobactam, cefazolin, ceftriaxone, meropenem, clarithromycin, clindamycin, gentamicin, amikacin, vancomycin, ciprofloxacin, levofloxacin, moxifloxacin, linezolid, trimethoprim/sulfamethoxazole and doxycycline. These agents were obtained as laboratory grade powders from their respective manufacturers. Stock solutions were prepared and dilutions made as described by the Clinical Laboratory Standards Institute (2005 CLSI). Following two subcultures from frozen stock the MICs of the antimicrobial agents for the isolates were determined by the CLSI 2005 approved broth macrodilution method. Briefly, test tubes containing doubling antibiotic dilutions (2 ml per tube) of cation adjusted Mueller-Hinton broth (eg. for Enterobacteriaceae) with or without lysed horse blood (2-5% V/V) [eg. for S. pneumoniae] were inoculated to achieve a final concentration of approximately 5×10^5 CFU/ml and incubated in ambient air for 24 hours prior to reading. Colony counts were performed periodically to confirm inocula. Quality control was performed every two weeks using a variety of ATCC QC organisms including; S. aureus 29213, E. faecalis 29212, E. coli 25922 and P. aeruginosa 27853. For all antimicrobials as well as PEP35, CLSI criteria were used.

[3] = system: Gram-negative bacilli; assay: Checkerboard assay, panel statement; format: cell-based; conditions: with gentamicin, levofloxacin, piperacillin-tazobactam, meropenem and colistin; all Gram-negative bacilli tested
Experimental: (§2) The checkerboard assays were carried out as described by Eliopoulos and Moellering (Chapter 9) in Antibiotic in Laboratory Medicine, Lorian Ed. 1996 as well as Bonapace et al. Diagnostic Microbiology and Infectious Diseases 2002; 44:363-366 and Bonapace et al. Diagnostic Microbiology and Infectious Diseases 2000; 38:43-50. In brief, checkerboard assays were performed in 96 well microtitre trays using an 8-by-8 well configuration. […] 96-well custom designed microtitre plates contained 100 ul/well of cation adjusted Mueller-Hinton broth (eg. for Enterobacteriaceae) with or without lysed horse blood (2-5% V/V) [eg. for S. pneumoniae] and were inoculated to achieve a final concentration of approximately 5×10^5 CFU/ml and incubated in ambient air for 24 hours prior to reading. Colony counts were performed periodically to confirm inocula. Quality control was performed every two weeks using a variety of ATCC QC organisms including; S. pneumoniae 49619, S. aureus 29213, E. faecalis 29212, E. coli 25922 and P. aeruginosa 27853. For all antimicrobials as well as PEP35, CLSI criteria was used.
(§3) The fractional inhibitory concentration index (FIC index) was used to interpret synergy, antagonism or additivity/indifference. FIC index=FIC of drug A+FIC of drug B where:
(§4) The FIC of drug A and drug B is calculated as follows, FIC drug A=MIC of drug A in combination/MIC of drug A alone and FIC of drug B=MIC of drug B in combination/MIC of drug B alone. Synergy is defined as FIC index ≦0.5, additivity/indifference FIC >0.5-4 and antagonism FIC index >4.
(§5) Antimicrobials used included PEP35, cefazolin, ceftriaxone, vancomycin, linezolid, tigecycline and daptomycin versus Gram-positive cocci and PEP35, gentamicin, levofloxacin, piperacillin/tazobactam, meropenem and colistin (Polymyxin E) versus Gram-negative bacilli. These agents were obtained as laboratory grade powders from their respective manufacturers. Stock solutions were prepared and dilutions made as described by the Clinical Laboratory Standards Institute (2005 CLSI).
as §1, with “Gram-negative bacilli tested (2 strains of each) included: E. coli, Pseudomonas aeruginosa, Klebsiella pneumoniae, K. oxytoca, Enterobacter cloacae, P. mirabilis and Stenotrophomonas maltophilia.” left out

[4] = system: Gram-positive cocci; assay: Checkerboard assay, panel statement; format: cell-based
Experimental: as §2, §3, §4, §5
as §1, with “Gram-negative bacilli tested (2 strains of each) included: E. coli, Pseudomonas aeruginosa, Klebsiella pneumoniae, K. oxytoca, Enterobacter cloacae, P. mirabilis and Stenotrophomonas maltophilia.” left out

[5] = system: P. aeruginosa; assay: Checkerboard assay (FIC index); format: cell-based, Pseudomonas aeruginosa; conditions: antibiotic combined with PEP35
Experimental: as §2, §3, §4, §5, §1

[6] = system: E. cloacae; assay: Checkerboard assay (FIC index); format: cell-based, Enterobacter cloacae; conditions: antibiotic combined with PEP35
Experimental: as §2, §3, §4, §5, §1

[7] = system: P. mirabilis; assay: Checkerboard assay (FIC index); format: cell-based, Proteus mirabilis; conditions: antibiotic combined with PEP35
Experimental: as §2, §3, §4, §5, §1

[8] = system: S. maltophilia; assay: Checkerboard assay (FIC index); format: cell-based, Stenotrophomonas maltophilia; conditions: antibiotic combined with PEP35
Experimental: as §2, §3, §4, §5, §1

Row | Compound | MIC [1] | MIC alone, range [2] [mg/L] | interaction (in words) [3] | interaction (in words) ([4]; with cefazolin and ceftriaxone, CA-MRSA and HA-MRSA) | antagonism (in words) ([4]; with cefazolin, ceftriaxone, daptomycin, linezolid, tigecycline and vancomycin, any streptococci, staphylococci and enterococci tested) | interaction (in words) ([4]; with the six antibiotics, all streptococci, staphylococci and enterococci except CA-MRSA and HA-MRSA) | Avg ΣFIC (range) ([5]; P. aeruginosa 70849) | Avg ΣFIC (range) ([5]; P. aeruginosa 71841) | Avg ΣFIC (range) ([6]; E. cloacae 80194) | Avg ΣFIC (range) ([6]; E. cloacae 83128) | Avg ΣFIC (range) ([7]; P. mirabilis 80267) | Avg ΣFIC (range) ([7]; P. mirabilis 81569) | Avg ΣFIC (range) ([8]; S. maltophilia 73062) | Avg ΣFIC (range) ([8]; S. maltophilia 77424)
1 | LKQKIKHVVKLKVVVKLRSQLVKRKQN (listed as Mus sp.) [PEP35] | *PEP35 MIC > 4096 | 512 to 1024 | did not demonstrate antagonism or synergy; also recorded: additive | synergistic | did not demonstrate antagonism | additive |  |  |  |  |  |  |  | 
2 | piperacillin/tazobactam |  |  |  |  |  |  | 0.92 (0.62-1.12) | 0.88 (0.56-1.12) | 0.79 (0.5-1.06) | 0.71 (0.37-1.06) | >0.5* | >0.5* | 0.98 (0.62-1.25) | 1.04 (0.75-1.25)
3 | C[C@@H](O)[C@H]1C(=O)N2C(C(=O)O)=C(S[C@@H]3CN[C@H](C(=O)N(C)C)C3)[C@H](C)[C@H]12 [Meropenem] |  |  |  |  |  |  | 1.21 (1.03-1.5) | 1.10 (1.0-1.25) | 1.32 (1.03-2.12) | 1.05 (0.75-1.25) | >1* | >1* | 0.77 (0.5-1.03) | 1.05 (0.75-1.25)
